Laboratory results reported in PMC12075686, “Structural basis of phosphorylation-independent nuclear import of CIRBP by TNPO3” (Nature Communications, 2025).

Key:
TNPO3 WT = molecular target: T1, TNPO3 WT (Homo sapiens, UniProt Q9Y5L0); test: ITC, ligand titrated into TNPO3 WT; assay type: binding; settings: ITC, TNPO3 WT
T1 sequence (Q9Y5L0 1-923): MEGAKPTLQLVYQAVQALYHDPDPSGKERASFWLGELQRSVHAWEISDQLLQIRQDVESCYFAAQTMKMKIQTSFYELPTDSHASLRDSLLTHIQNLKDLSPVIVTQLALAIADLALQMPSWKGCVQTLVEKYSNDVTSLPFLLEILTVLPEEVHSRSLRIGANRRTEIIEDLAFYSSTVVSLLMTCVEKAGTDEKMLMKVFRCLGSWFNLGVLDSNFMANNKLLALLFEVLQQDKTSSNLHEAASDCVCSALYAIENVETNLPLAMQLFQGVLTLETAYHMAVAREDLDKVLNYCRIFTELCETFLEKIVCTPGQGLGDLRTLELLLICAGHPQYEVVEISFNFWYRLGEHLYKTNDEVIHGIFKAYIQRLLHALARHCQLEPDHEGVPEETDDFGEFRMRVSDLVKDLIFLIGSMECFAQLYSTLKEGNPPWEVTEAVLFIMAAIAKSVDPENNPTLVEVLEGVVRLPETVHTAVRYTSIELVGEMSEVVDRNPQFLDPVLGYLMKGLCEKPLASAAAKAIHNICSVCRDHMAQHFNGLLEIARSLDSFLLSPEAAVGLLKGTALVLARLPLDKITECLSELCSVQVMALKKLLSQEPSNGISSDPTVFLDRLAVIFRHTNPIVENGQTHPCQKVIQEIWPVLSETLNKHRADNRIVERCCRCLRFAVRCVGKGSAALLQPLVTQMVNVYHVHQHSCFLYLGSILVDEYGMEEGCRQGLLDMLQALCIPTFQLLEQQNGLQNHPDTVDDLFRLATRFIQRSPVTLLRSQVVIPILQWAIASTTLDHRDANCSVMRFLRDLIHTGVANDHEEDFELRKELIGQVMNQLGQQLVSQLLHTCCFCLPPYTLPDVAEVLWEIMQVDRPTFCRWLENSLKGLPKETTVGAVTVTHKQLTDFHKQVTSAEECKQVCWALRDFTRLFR
Procedure: (§1) ITC has been performed by a Malvern Microcal VP-ITC at 25 °C for all binding studies. Samples have been dissolved in Tris buffer containing 50 mM Tris–HCl, 150 mM NaCl, 2 mM TCEP, and 0.04% NaN3 at pH 7.5. Binding studies of CIRBP^RSY and SRSF1^RS were performed with TNPO3 WT, and studies of CIRBP (157–172) and its mutants/phosphorylations were performed with TNPO3 C511A, respectively. Injection has been carried out by a syringe containing ligand solution of 100 μM, which adds ligand step-wise into the cell containing 10 μM TNPO3 during 28 injections of 10 μL each. Data analysis, curve fitting, and calculation of Kd, ΔH, and ΔS have been carried out using Origin-based 7.0 software provided by the manufacturer. All replicated ITC data are shown in Supplementary Fig. 6 and Supplementary Table 1.

TNPO3 = test: NMR binding studies with TNPO3 (1H-15N HSQC, 1H-13C HMQC, 1H 1D, STD); set-up: species or system human
Procedure: All NMR studies for TNPO3 were carried out using the wild type protein. Protein samples for ^1H-^13C HMQC were prepared at a concentration of 100 μM and equilibrated in a buffer containing 50 mM Tris–HCl, pH 6.7, 150 mM NaCl, 2 mM TCEP and 10% D2O. Spectral acquisitions for TNPO3 free and in complex with CIRBP^RSY and SRSF1^RS, respectively were performed at 298 K on a 700 MHz Bruker Avance III NMR spectrometer equipped with a TCI triple-resonance cryoprobe. The pulse program was sfhmqcf2gpph and the spectra were recorded with 32 scans, interscan delay of 1 s, 160 points in F1, 1024 points in F2, 5283.879 Hz spectral width in F1, and 11,160.714 Hz spectral width in F2. Spectra were processed using Topspin 4.1.3.
Spectral acquisitions for TNPO3 free and in complex with mCIRBP^RSY, pCIRBP^RSY, and pSRSF1^RS, respectively, were performed at 298 K on a 600 MHz Bruker Avance Neo NMR spectrometer equipped with a TXI 600S3 probehead. The pulse program was hmqcgpphwg and the spectra were recorded with 64 scans, interscan delay of 1 s, 200 points in F1, 1024 points in F2, 4545.455 Hz spectral width in F1, and 7812.500 Hz spectral width in F2. Spectra were processed using Topspin 4.3.0.
For ^1H-^15N HSQC spectra, protein samples were equilibrated in a buffer containing 50 mM Tris–HCl, pH 6.7, 150 mM NaCl, 2 mM TCEP, 0.04% NaN3, and 10% D2O (with additional 20 mM MgCl2 for CIRBP phosphorylation kinetics). Data were recorded at 298 K on the 600 MHz Bruker Avance Neo NMR spectrometer equipped with a TXI 600S3 probehead. The pulse program was hsqcetfpf3gpsi and was recorded with 8-16 scans, interscan delay of 1 s, 128 points in F1, 1024 points in F2, 1949.318 Hz spectral width in F1, and 9615.385 Hz spectral width in F2. Spectra were processed using Topspin 4.3.0.

transportin-1 (TNPO1) = settings: cited from earlier work
Source text: CIRBP, a nuclear protein known for its role in regulating mRNA stability and DNA repair, translocates from the nucleus to the cytoplasm under stress condition, forming stress granules[31],[32]. It is a typical RNA-binding pro ... || page 4: REVIEWER COMMENTS Comments are highlighted with a green background Reviewer #1 (Remarks to the Author) TNPO3 is an important karyopherin involved in some human pathologies and HIV-1 infection. Its best characterized biological function is in nuclear import of SR and SR-like repeat containing proteins, such as SFRS1 and CPSF6. […] Intriguingly, TNPO3 engages these alternative NLSs via the same region, which it ...

TNPO3 C511A = molecular target: T2, TNPO3 C511A (Homo sapiens, UniProt Q9Y5L0, C511A); test: ITC, ligand titrated into TNPO3 C511A; assay type: binding; settings: TNPO3 C511A
T2 construct: full-length (FL) WT human TNPO3 were generated by synthesizing codon-optimized DNA fragments; His6 (N, cleaved yes); protein A (N, cleaved yes); made in house; host or cells: Escherichia coli BL21-(DE3) Star
T2 sequence (Q9Y5L0 1-923 C511A): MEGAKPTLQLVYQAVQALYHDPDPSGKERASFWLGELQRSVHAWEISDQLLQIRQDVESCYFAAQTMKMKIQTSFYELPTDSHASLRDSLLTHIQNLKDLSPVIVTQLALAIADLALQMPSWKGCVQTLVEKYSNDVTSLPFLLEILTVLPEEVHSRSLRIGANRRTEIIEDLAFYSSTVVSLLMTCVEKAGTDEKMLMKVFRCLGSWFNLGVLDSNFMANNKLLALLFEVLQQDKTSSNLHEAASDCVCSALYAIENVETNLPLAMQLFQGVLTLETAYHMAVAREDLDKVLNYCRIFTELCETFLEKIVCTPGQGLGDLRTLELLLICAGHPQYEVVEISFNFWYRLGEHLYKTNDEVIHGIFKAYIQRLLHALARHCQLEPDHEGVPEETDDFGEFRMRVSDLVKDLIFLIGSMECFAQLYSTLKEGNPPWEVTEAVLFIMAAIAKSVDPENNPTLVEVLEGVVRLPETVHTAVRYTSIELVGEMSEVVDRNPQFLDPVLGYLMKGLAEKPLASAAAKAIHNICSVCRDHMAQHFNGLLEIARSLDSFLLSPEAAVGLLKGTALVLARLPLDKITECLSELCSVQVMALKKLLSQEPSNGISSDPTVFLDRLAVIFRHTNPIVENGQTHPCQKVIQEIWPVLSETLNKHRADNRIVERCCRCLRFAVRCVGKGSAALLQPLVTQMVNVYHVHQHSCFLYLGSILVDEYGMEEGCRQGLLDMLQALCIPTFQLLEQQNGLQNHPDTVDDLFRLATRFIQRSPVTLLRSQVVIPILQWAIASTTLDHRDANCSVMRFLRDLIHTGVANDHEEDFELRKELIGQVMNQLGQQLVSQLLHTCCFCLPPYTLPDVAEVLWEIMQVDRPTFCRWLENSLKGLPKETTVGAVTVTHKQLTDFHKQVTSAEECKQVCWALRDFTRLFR
Procedure: as §1

H-GSRDYYSSRSQSGGYSDRSSGGSYRDSYDSYATHNE-OH [CIRBP^RSY]
ΔS (TNPO3 WT; replicate 1 (rep1)): –101 cal/mol/deg
ΔS (TNPO3 WT; replicate 2 (rep2)): –192 cal/mol/deg
change of peptide 1H 1D NMR signals with sub-stoichiometric TNPO3 (TNPO3; 100 µM RSY regions and 10 µM TNPO3 (peer review reply)): slight decrease of peptide signal intensity
chemical shift perturbations of TNPO3 methyl groups upon ligand addition (1H,13C HMQC) (TNPO3; 100 µM [IM-methyl 13C] labeled TNPO3, one stoichiometric equivalent of ligand, 298 K, pH 6.7): led to CSPs of several TNPO3 ^1H,^13C cross-peaks
fold lower binding affinity for TNPO1 than for TNPO3 (transportin-1 (TNPO1)): approximately 70
ΔS (TNPO3 C511A; rep1, reference for alanine mutation): –124 cal/mol/deg
ΔS (TNPO3 C511A; rep2, reference for alanine mutation): –242 cal/mol/deg
